Experimental findings from ChEMBL document CHEMBL5236624, “Synthesis, Characterization, and Application of Muscarinergic M3 Receptor Ligands Linked to Fluorescent Dyes” (J Med Chem, 2022) are described below.

As a reminder, the Ki is a dissociation constant, usually derived from enzyme kinetics or from competition with a known ligand.

The species named for assay [1] is Homo sapiens. Briefly: Selectivity ratio, Ki for displacement of [3H]N-methylscopolamine from human muscarinic M4 receptor expressed in human HEK293T cell membranes to Ki for displacement of [3H]N-methylscopolamine from human muscarinic M3 receptor expressed in human HEK293T cell membranes. (Displacement assays read how much labelled ligand stays bound in the presence of the test substance.)

Assay [2] has as its target Muscarinic acetylcholine receptor M3 (Homo sapiens, UniProt P20309). Briefly: Displacement of [3H]N-methylscopolamine from human muscarinic M3 receptor expressed in human HEK293T cell membranes by radioligand competition binding based analysis. Details: species or system Cell membrane.
Assay [3] has as its target T1, Muscarinic acetylcholine receptor M5 (Homo sapiens, UniProt P08912).
T1 sequence (P08912 whole entry): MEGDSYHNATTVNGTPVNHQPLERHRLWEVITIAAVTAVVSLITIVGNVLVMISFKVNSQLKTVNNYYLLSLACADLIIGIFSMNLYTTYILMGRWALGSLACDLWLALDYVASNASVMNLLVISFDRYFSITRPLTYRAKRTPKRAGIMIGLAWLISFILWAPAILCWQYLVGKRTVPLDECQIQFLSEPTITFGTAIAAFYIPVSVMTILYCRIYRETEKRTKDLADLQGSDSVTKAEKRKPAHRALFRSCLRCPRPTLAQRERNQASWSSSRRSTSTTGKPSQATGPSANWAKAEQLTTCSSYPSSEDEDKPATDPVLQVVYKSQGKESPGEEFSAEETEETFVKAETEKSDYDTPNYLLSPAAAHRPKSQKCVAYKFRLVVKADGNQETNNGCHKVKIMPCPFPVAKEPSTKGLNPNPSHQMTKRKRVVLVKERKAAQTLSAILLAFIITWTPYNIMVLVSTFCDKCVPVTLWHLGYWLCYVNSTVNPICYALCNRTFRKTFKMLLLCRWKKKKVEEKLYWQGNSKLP
Put plainly: Displacement of [3H]N-methylscopolamine from human muscarinic M5 receptor expressed in human HEK293T cell membranes by radioligand competition binding based analysis. Details: species or system Cell membrane.

The species entered for assay [4] is Homo sapiens. Put plainly: Selectivity ratio, Ki for displacement of [3H]N-methylscopolamine from human muscarinic M5 receptor expressed in human HEK293T cell membranes to Ki for displacement of [3H]N-methylscopolamine from human muscarinic M3 receptor expressed in human HEK293T cell membranes.
Assay [5] addresses T2, Muscarinic acetylcholine receptor M2 (Homo sapiens, UniProt P08172).
T2 sequence (P08172 whole entry): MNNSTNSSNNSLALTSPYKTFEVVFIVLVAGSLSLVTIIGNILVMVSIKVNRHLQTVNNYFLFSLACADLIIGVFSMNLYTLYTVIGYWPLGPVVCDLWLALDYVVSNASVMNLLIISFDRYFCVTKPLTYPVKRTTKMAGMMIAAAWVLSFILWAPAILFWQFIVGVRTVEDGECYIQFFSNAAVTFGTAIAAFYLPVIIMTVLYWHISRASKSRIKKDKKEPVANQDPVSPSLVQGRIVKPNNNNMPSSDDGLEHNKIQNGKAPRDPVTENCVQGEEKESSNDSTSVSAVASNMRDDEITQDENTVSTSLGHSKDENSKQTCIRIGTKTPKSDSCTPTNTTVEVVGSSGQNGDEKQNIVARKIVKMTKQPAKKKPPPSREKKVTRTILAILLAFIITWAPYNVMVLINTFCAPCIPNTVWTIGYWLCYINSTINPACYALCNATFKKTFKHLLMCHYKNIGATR
Briefly: Displacement of [3H]N-methylscopolamine from human muscarinic M2 receptor expressed in human HEK293T cell membranes by radioligand competition binding based analysis. Details: species or system Cell membrane.

Assay [6] concerns the target T3, Muscarinic acetylcholine receptor M1 (Homo sapiens, UniProt P11229).
T3 sequence (P11229 whole entry): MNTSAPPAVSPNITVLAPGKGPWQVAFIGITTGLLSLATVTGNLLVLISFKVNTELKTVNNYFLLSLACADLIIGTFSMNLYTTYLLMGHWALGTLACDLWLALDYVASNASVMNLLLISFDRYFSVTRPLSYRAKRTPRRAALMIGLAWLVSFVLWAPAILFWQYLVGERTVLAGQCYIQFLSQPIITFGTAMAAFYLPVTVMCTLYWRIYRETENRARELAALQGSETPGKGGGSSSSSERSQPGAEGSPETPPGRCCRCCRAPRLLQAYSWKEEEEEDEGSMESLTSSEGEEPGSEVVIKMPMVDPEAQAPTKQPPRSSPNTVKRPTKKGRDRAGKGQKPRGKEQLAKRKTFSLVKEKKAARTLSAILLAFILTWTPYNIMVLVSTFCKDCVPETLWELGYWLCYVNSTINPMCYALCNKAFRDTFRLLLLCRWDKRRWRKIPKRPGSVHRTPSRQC
Put plainly: Displacement of [3H]N-methylscopolamine from human muscarinic M1 receptor expressed in human HEK293T cell membranes by radioligand competition binding based analysis. Details: species or system Cell membrane.

Assay [7] concerns the target T4, Muscarinic acetylcholine receptor M4 (Homo sapiens, UniProt P08173).
T4 sequence (P08173 whole entry): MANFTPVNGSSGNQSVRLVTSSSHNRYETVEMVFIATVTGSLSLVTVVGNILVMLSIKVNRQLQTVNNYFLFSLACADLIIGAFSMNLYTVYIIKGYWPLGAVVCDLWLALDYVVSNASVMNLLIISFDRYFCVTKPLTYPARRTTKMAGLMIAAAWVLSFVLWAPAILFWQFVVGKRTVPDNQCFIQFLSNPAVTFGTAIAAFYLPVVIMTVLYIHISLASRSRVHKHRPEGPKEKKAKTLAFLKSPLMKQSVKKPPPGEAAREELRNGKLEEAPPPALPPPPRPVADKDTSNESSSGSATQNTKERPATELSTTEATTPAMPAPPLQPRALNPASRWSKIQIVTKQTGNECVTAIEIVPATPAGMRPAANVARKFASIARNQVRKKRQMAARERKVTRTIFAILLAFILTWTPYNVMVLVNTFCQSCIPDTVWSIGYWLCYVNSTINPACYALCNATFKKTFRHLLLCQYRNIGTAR
Briefly: Displacement of [3H]N-methylscopolamine from human muscarinic M4 receptor expressed in human HEK293T cell membranes by radioligand competition binding based analysis. Details: species or system Cell membrane.

Sequence of Muscarinic acetylcholine receptor M3 (P20309 whole entry): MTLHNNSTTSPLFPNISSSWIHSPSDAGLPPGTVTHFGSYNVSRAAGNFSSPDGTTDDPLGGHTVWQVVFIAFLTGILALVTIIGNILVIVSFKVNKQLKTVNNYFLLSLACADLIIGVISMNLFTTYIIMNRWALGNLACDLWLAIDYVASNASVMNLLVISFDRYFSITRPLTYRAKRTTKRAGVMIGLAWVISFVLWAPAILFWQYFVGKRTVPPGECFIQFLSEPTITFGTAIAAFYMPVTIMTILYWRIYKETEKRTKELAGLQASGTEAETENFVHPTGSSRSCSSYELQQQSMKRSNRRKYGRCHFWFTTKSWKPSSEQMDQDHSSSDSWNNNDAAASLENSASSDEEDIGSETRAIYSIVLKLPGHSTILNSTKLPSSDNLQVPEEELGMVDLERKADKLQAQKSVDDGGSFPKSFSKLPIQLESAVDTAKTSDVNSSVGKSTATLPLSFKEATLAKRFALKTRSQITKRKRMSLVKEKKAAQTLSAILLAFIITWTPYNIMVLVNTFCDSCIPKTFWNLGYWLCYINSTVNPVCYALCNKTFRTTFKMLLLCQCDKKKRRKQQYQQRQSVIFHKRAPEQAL

`CN1/C(=C/C=C/C=C/C2=[N+](CCCCCC(=O)NCCCCCCN3CCC(OC(=O)Nc4ccc(F)cc4-c4ccc(F)c(Cl)c4)CC3)c3ccccc3C2(C)C)C(C)(C)c2ccccc21`: the Selectivity ratio in the assay filed under Homo sapiens [1] was 2; in the assay filed under Homo sapiens [4], 15. For the same compound, the Ki in assay [2] is 2.7 nM; in assay [3], 40 nM; in assay [5], 5.9 nM; in assay [6], 2.7 nM; in assay [7] it was 5.4 nM.

In the case of `C#CCCCCCN1CCC(OC(=O)Nc2ccc(F)cc2-c2ccc(F)c(Cl)c2)CC1`, the Ki in assay [2] turned out to be 1.8 nM; in assay [5], 23 nM; in assay [6] it was 2 nM.

Turning to `CN1/C(=C/C=C/C=C/C2=[N+](CCCCCC(=O)NCCCNCCCCCCN3CCC(COC(=O)Nc4ccc(F)cc4-c4ccc(F)c(Cl)c4)CC3)c3ccccc3C2(C)C)C(C)(C)c2ccccc21`, the Selectivity ratio in the assay listed under Homo sapiens [1] amounted to 0.22; in the assay filed under Homo sapiens [4] it was 2.3. The inhibitory constant (Ki) in assay [2] stood at 7.7 nM; in assay [3], 18 nM; in assay [5], 9.9 nM; in assay [6], 1.9 nM; in assay [7], 1.7 nM.

As for `NCCCCCCN1CCC(OC(=O)Nc2ccc(F)cc2-c2ccc(F)c(Cl)c2)CC1`, the results for the inhibition constant Ki in assay [2], in assay [5] and in assay [6] were 2.6 nM, 28 nM and 1.9 nM, respectively.

Turning to `CN1/C(=C/C=C/C=C/C2=[N+](CCCCCC(=O)NCCCCCCCCN3CCC(COC(=O)Nc4ccc(F)cc4-c4ccc(F)c(Cl)c4)CC3)c3ccccc3C2(C)C)C(C)(C)c2ccccc21`, the Selectivity ratio worked out at 0.18 in the assay listed under Homo sapiens [1] and 0.81 in the assay listed under Homo sapiens [4]. Besides, the Ki in assay [2] amounted to 3.2 nM; in assay [3] it was 2.6 nM; in assay [5], 1.1 nM; in assay [6] it was 1.8 nM; in assay [7], 0.56 nM.

Take `C#CCCCCCN1CCC(COC(=O)Nc2ccc(F)cc2-c2ccc(F)c(Cl)c2)CC1`: the Ki was 0.77 nM in assay [2], 13 nM in assay [5] and 1.3 nM in assay [6].

On to `NCCCCCCCCN1CCC(OC(=O)Nc2ccc(F)cc2-c2ccc(F)c(Cl)c2)CC1`, for which the inhibition constant (Ki) in assay [2] was determined as 0.28 nM; in assay [5], 1.7 nM; in assay [6], 0.34 nM.

For the compound `CN1/C(=C/C=C/C=C/C2=[N+](CCCCCC(=O)NCCCCCCCCN3CCC(OC(=O)Nc4ccc(F)cc4-c4ccc(F)c(Cl)c4)CC3)c3ccccc3C2(C)C)C(C)(C)c2ccccc21`, the Selectivity ratio in the assay listed under Homo sapiens [1] was 1.4. Moreover, the inhibition constant Ki in assay [5] amounted to 0.62 nM; in assay [6], 1 nM; in assay [7], 0.86 nM.

On to `CN(C)c1ccc2c(-c3ccc(-c4cn(CCCCCn5cc(CCCCCN6CCC(OC(=O)Nc7ccc(F)cc7-c7ccc(F)c(Cl)c7)CC6)nn5)nn4)cc3C(=O)[O-])c3ccc(=[N+](C)C)cc-3oc2c1`, for which the Selectivity ratio in the assay listed under Homo sapiens [1] was 0.49; in the assay listed under Homo sapiens [4] it was 1.4. In addition, the Ki in assay [2] turned out to be 6.8 nM; in assay [3], 9.7 nM; in assay [5] it was 26 nM; in assay [6], 4.1 nM; in assay [7], 3.3 nM.

Turning to `C#CCCCCCCN1CCC(OC(=O)Nc2ccc(F)cc2-c2ccc(F)c(Cl)c2)CC1`, the Ki in assay [2] was 1 nM; in assay [5], 7.9 nM; in assay [6], 0.63 nM.

In the case of `CN(C)c1ccc2c(-c3ccc(-c4cn(CCCCCn5cc(CCCCCCN6CCC(OC(=O)Nc7ccc(F)cc7-c7ccc(F)c(Cl)c7)CC6)nn5)nn4)cc3C(=O)[O-])c3ccc(=[N+](C)C)cc-3oc2c1`, the Selectivity ratio came to 0.32 in the assay filed under Homo sapiens [1] and 0.92 in the assay listed under Homo sapiens [4]. The Ki amounted to 12 nM in assay [2]; 11 nM in assay [3]; 9.8 nM in assay [5]; 2 nM in assay [6]; 3.8 nM in assay [7].

Consider `C#CCCCCCCN1CCC(COC(=O)Nc2ccc(F)cc2-c2ccc(F)c(Cl)c2)CC1`, for which the Ki in assay [2] came out at 0.32 nM; in assay [5], 9.3 nM; in assay [6] it was 0.64 nM.

As for `O=C(Nc1ccc(F)cc1-c1ccc(F)c(Cl)c1)OC1CCNCC1`, the Ki in assay [2] stood at 4.3 nM; in assay [5], 92 nM; in assay [6] it was 2.8 nM.

On to `NCCCCCCCCN1CCC(COC(=O)Nc2ccc(F)cc2-c2ccc(F)c(Cl)c2)CC1`, for which the Ki came to 0.15 nM in assay [2], 0.92 nM in assay [5] and 0.35 nM in assay [6].

For `CN1/C(=C/C=C/C=C/C2=[N+](CCCCCC(=O)NCCCCCCN3CCC(COC(=O)Nc4ccc(F)cc4-c4ccc(F)c(Cl)c4)CC3)c3ccccc3C2(C)C)C(C)(C)c2ccccc21`, the Selectivity ratio amounted to 0.14 in the assay filed under Homo sapiens [1] and 1.1 in the assay filed under Homo sapiens [4]. Moreover, the Ki in assay [2] turned out to be 6.3 nM; in assay [3] it was 6.9 nM; in assay [5], 6.7 nM; in assay [6] it was 2.3 nM; in assay [7] it was 0.9 nM.

Turning to `NCCCCCCN1CCC(COC(=O)Nc2ccc(F)cc2-c2ccc(F)c(Cl)c2)CC1`, the Ki turned out to be 0.081 nM in assay [2], 1.4 nM in assay [5] and 0.43 nM in assay [6].

`CN(C)c1ccc2c(-c3ccc(-c4cn(CCCCCn5cc(CCCCCN6CCC(COC(=O)Nc7ccc(F)cc7-c7ccc(F)c(Cl)c7)CC6)nn5)nn4)cc3C(=O)[O-])c3ccc(=[N+](C)C)cc-3oc2c1`: the values for the Selectivity ratio in the assay filed under Homo sapiens [1] and in the assay listed under Homo sapiens [4] were 0.84 and 3.9, respectively. Also, the Ki was determined as 3.1 nM in assay [2]; 12 nM in assay [3]; 26 nM in assay [5]; 3.8 nM in assay [6]; 2.6 nM in assay [7].
